Reference: US20120282296A1, “METHODS FOR IMPROVING THE DESIGN, BIOAVAILABILITY, AND EFFICACY OF DIRECTED SEQUENCE POLYMER COMPOSITIONS VIA SERUM PROTEIN-BASED DETECTION OF DIRECTED SEQUENCE POLYMER COMPOSITIONS” (ARES TRADING SA, priority 2009, published 2012)

Assays:
[1] = YEAK in serum of mice after IV or SC dosing, detected by anti-YEAK ELISA; format: in vivo
CCL22 = assay: Acute release of CCL22 (MDC) in serum or plasma after SC YEAK administration in mice; format: in vivo
[2] = system: monocyte cell line RAW264.7; assay: CCL22 release bioassay in the monocyte cell line RAW264.7; format: cell-based
Excerpt: Following synthesis of different DSP compositions, for example by solid phase synthesis or by solution phase synthesis, the individual lots or batches made by the same manufacturing process, and individual batches of mixtures manufactured by different processes may be tested and compared for variation using bioassays. Depending on the indication of the DSP composition, appropriate bioassays include the release of CCL22 by the monocyte cell line RAW264.7, ex vivo proliferation assays, and measuring the binding of serum proteins to peptides in the DSP composition. Using these bioassays, one may determine subsets of peptides or even individual peptides that are present in any given process or lot. Processes and lots of DSP compositions will be compared to determine whether the same subsets of peptides and/or types of peptides are consistently represented across the different processes and lots.

[3] = system: Ig fraction of rabbit polyserum; assay: ELISA with Ig fraction of rabbit polyserum; format: binding
[4] = various species, including man; cited from earlier work
[5] = mice dosed IV 4 mg/kg or SC 21 mg/kg, route for this value not stated

Row | Substance | maximum serum concentration [1, 5] [ng/mL] | time of maximum serum concentration post dosing [1, 5] | detection in serum at 2 hours post-dosing ([1]; mice, 2 hours post-dosing) | relation between dose administered SC and observed maximum CCL22 plasma concentration (CCL22) | CCL22 release by RAW264.7 cells [2] | interaction with / recognition by Ig fraction of rabbit polyserum [3] | persistence in serum after subcutaneous administration [4]
1 | glatiramer acetate [Copaxone] | 1800 | around 15 min | still detected | linear correlation | released CCL22 in a concentration dependent manner | interacts strongly | can be detected in serum of various species, including man, several hours after subcutaneous administration
2 | plovamer [PI-2301] | – | – | – | – | – | – | can be detected in serum of various species, including man, several hours after subcutaneous administration
